Data set [1] can be described thus: Pharmacokinetic assay in mice, plasma LC-MS/MS, two-compartment model. In kind it is in vivo, mouse.
The subject of data set [2] is KPC tumors. Put plainly: In vivo tumor growth study, KPC tumors in athymic nude mice. Particulars: 20 mg/kg IV, mice with KPC tumors. Also noted: species or system mouse.

The source of these data is article PMC10785662 (ACS Omega, 2023).

The AUC is the area under the concentration-time curve, a measure of exposure. A high value points to high exposure. As for `COc1cccc2c1C(=O)c1c(O)c3c(c(O)c1C2=O)C[C@@](O)(C(=O)CO)C[C@@H]3O[C@H]1C[C@H](N)[C@H](O)[C@H](C)O1` [doxorubicin, Doxorubicin], the AUC in data set [1] (male, ICR, mouse, plasma, iv, 6 mg/kg) stood at 260 ng·h/mL. Further, in data set [1] (mouse plasma, single IV dose 6.0 mg/kg doxorubicin-equivalent), the “T1/2β (terminal half-life)” value amounted to 3.2 h. Further, in data set [2], the “time to toxicity-related fatality” value is reported as at most 1 week and the toxicity-related fatality entry is “toxicity-related fatality in all mice”.
